Three substances from patent US20250009819A1, “NOVEL PROBIOTICS AND USE THEREOF” (PBLBIOLAB CO., LTD., priority 2021, published 2025) can be followed below.

Experiment [1] deals with animals with intestinal and brain diseases induced by TNBS. Put plainly: Animals with intestinal and brain diseases induced by TNBS: cognitive improvement, hippocampus. Format: in vivo, C57BL/6 male mice. The note with it: for Cognitive function Exploration (%) / Cognitive function Spont. alteration (%) / Concentration in the hippocampus IFN-γ / Concentration in the hippocampus IL-10 / Concentration in the hippocampus TNF-α: TNBS-treated mice, 1×10^9 CFU/mouse or sulfasalazine 50 mg/kg orally once a day for 5 days; for cognitive impairment caused by TNBS: result in words, summary of Table 18. How it is done:
Indicators of this supernatant were measured using an ELISA kit (Ebioscience). […] The animal's movements were recorded, and reported as arm entries when the animal entered the arm with its hind paw, and the animal's movement was represented by an alternation, which was defined as one alternation when the animal passed through the three arms in succession. The amount of spontaneous alternation behavior was expressed as a percentage between the actual number of alternations and the maximum possible number of alternations (i.e., the total number of […] minus 2). The experiment was conducted in a box (40×40×40 cm) made so that the outside could not be seen from the inside. Two objects (A, A′) of the same shape and size were fixedly disposed in a box and the mouse was relocated to start from the center of the box. Then, the number of times the mouse made contact with the two objects was recorded for 10 minutes. After 24 hours, one of the two objects was replaced with a new object (A, B). Then, one original object and one new object were prepared, and the animal's exploration time was measured. C57BL/6 male mice (5 weeks old, 19-21 g) were divided (6 mice in each group) and acclimatized to the laboratory for 1 week. […] Meanwhile, the normal group was orally administered with 0.1 ml of physiological saline. From the next day, the mice were orally administered once a day for 5 days with lactic acid bacteria as a test sample suspended in physiological saline solution at a concentration of 1×10^9 CFU per mouse (NK210 alone (LR): 1×10^9 CFU/mouse, NK219 alone (BL): 1×10^9 CFU/mouse, NK209 alone (LL): 1×10^9 CFU/mouse, combined (MX, 210+219): NK210, 8×10^8 CFU/mouse and NK219, 2×10^8 CFU/mouse, combined (MX, 209+219) NK209, 8×10^8 CFU/mouse and NK219, 2×10^8 CFU/mouse, LR+BL+LL: NK210, 4×10^8 CFU/mouse, NK219, 2×10^8 CFU/mouse, and NK209, 4×10^8 CFU/mouse, heat treated (H—), respectively: 1×10^9 CFU/mouse). […] The day following the conclusion of sample administration, the experimental animals were sacrificed, and samples from the brain hippocampus, colon, and spleen were collected. In the Hippocampus, inflammatory indicators, such as TNF-α and IL-10, were measured using ELISA. In the colon, intestinal length and inflammatory indicators, such as TNF-α and IL-10, were measured. In the spleen, Th1 cells and Treg cells were measured by FACS (Fluorescence-Activated Cell Sorting).

The subject of another experiment is BDNF. Put plainly: BDNF expression in SH-SY5Y cells. It counts as cell-based. The note with it: LPS 200 ng/ml; lactic acid bacteria 1×10^4 CFU/ml; 24 h. The protocol:
SH-SY5Y cells obtained from the Korean Cell Line Bank were cultured in DMEM medium supplemented with 10% FBS and 1% antibiotics, and dispensed at 2×10^6 cells per well in a 12-well plate. Then, LPS (200 ng/ml) was added to each well along with lactic acid bacteria (1×10^4 CFU/ml) and incubated for 24 h. The cells and supernatants were collected, sonicated and centrifuged, and the amount of BDNF in the supernatant was measured by ELISA kit.

In the next experiment the test system is Clostridium difficile. Briefly: Clostridium difficile proliferation in gut microbiota (PCR). Particulars: for Gut microbiota Inhibition of difficile bacteria proliferation: human feces culture, lactic acid bacteria 1×10^6 CFU/mL, anaerobic 24 hr. Format: cell-based. The method, boiled down: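 Human fecal supernatant, diluted 10,000-fold in GAM, co-cultured anaerobically 24 h with lactic acid bacteria (1×10^6 CFU/mL). C. difficile quantified by PCR on pellet DNA (95 °C 30 s; 42 cycles 95 °C 5 s/72 °C 30 s); supernatant LPS measured by ELISA.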

The test system of a further experiment is gut microbiota. Briefly: LPS production in gut microbiota (ELISA). It counts as cell-based. Particulars: human feces culture; lactic acid bacteria 1×10^6 CFU/mL; anaerobic 24 hr. The protocol:
Fresh human feces were suspended in anaerobic medium (GAM, Nissui Pharmaceutical Co., Ltd., Japan) and allowed to stand for 10 min. The supernatant was diluted with 10,000-fold anaerobic medium, 0.05 mL of the dilution was transplanted into 5 mL of freshly made anaerobic medium, and lactic acid bacteria (1×10^6 CFU/mL) were implanted and incubated anaerobically for 24 hr.
On the technique in general: An ELISA detects its analyte on a solid surface through an enzyme-linked reagent.

In the case of Bifidobacterium longum NK219, in experiment [1], the “Cognitive function Exploration (%)” value was found to be 75.37%, the “Cognitive function Spont. alteration (%)” value came to 65.32%, the “Concentration in the hippocampus IFN-γ” value is reported as 25.02 pg/mg and the “Concentration in the hippocampus IL-10” value came to 40.26 pg/mg. Also, in experiment [1], the “Concentration in the hippocampus TNF-α” value is 11.93 pg/mg and the “cognitive impairment caused by TNBS” value is reported as “improved”. For the same substance, the “SHSY5Y cell Induction of BDNF expression” value with BDNF was “+++ (very strongly (+++; >90%))”. For the same substance, the “Gut microbiota Inhibition of difficile bacteria proliferation” value with Clostridium difficile is recorded as “+++ (very strongly (+++; >90%))”. The “Gut microbiota Inhibition of LPS production” value in the experiment with gut microbiota was “+++ (very strongly (+++; >90%))”.
On to Lactobacillus rhamnosus NK210, for which, in experiment [1], the “Cognitive function Exploration (%)” value is 74.25%, the “Cognitive function Spont. alteration (%)” value turned out to be 62.45%, the “Concentration in the hippocampus IFN-γ” value is on record as 26.28 pg/mg and the “Concentration in the hippocampus IL-10” value was 38.64 pg/mg. Further, in experiment [1], the “Concentration in the hippocampus TNF-α” value was found to be 12.14 pg/mg and the “cognitive impairment caused by TNBS” value is “improved”. In addition, in the experiment on BDNF, the “SHSY5Y cell Induction of BDNF expression” value is “++ (strongly (++; >60-90%))”. The “Gut microbiota Inhibition of difficile bacteria proliferation” value in the experiment on Clostridium difficile is given as “+++ (very strongly (+++; >90%))”. Moreover, the “Gut microbiota Inhibition of LPS production” value in the experiment on gut microbiota is on record as “+++ (very strongly (+++; >90%))”.
Consider Lactococcus lactis NK209, for which, in experiment [1], the “Cognitive function Exploration (%)” value is recorded as 70.20%, the “Cognitive function Spont. alteration (%)” value came to 58.8%, the “Concentration in the hippocampus IFN-γ” value turned out to be 30.81 pg/mg and the “Concentration in the hippocampus IL-10” value is recorded as 35.53 pg/mg. The “Concentration in the hippocampus TNF-α” value in experiment [1] stood at 13.54 pg/mg. The “SHSY5Y cell Induction of BDNF expression” value with BDNF is reported as “+ (weakly (+; >20-60%))”. Also, in the experiment with Clostridium difficile, the “Gut microbiota Inhibition of difficile bacteria proliferation” value is listed as “+++ (very strongly (+++; >90%))”. Besides, the “inhibiting the proliferation of intestinal Clostridium difficile” value with Clostridium difficile (result in words, summary of Table 2) is on record as “significant effect”. Moreover, the “Gut microbiota Inhibition of LPS production” value in the experiment on gut microbiota was “+ (weakly (+; >20-60%))”.
